Data: patent EP0396251A2, “Use of fatty acids for the treatment of diseases associated with cytokines” (NATIONAL UNIVERSITY OF SINGAPORE, priority 1989, dated 1990)
Entries after “also recorded” stand apart in the source; their conditions may differ. Like-named read-outs stand apart in the source and are kept apart here.

Key:
[1] = test system: antiviral state induced by human α interferon; experiment: cells; type: cell-based; conditions: for inhibited the action of interferon: summary of Table 3, concentrations and serum as in Table 3
[2] = test system: antiviral state induced by human β interferon; experiment: cells; type: cell-based; conditions: Fibroblast, 6 h, read-out: % inhibition of antiviral state induced by: human β interferon
[3] = test system: antiviral state induced by human γ interferon; experiment: cells; type: cell-based; conditions: Fibroblast, 6 h, read-out: % inhibition of antiviral state induced by: human γ interferon
[4] = molecular target: T1, interferon receptors (Homo sapiens, UniProt P17181+P48551); experiment: Binding of 125I-labelled human alpha interferon to human fibroblasts (Scatchard plot), Example 3; conditions: for down regulating the interferon receptors: Figures 4 and 5
T1 construct: endogenous in cells; host or cells: human fibroblasts
T1 sequence (P17181 28-557): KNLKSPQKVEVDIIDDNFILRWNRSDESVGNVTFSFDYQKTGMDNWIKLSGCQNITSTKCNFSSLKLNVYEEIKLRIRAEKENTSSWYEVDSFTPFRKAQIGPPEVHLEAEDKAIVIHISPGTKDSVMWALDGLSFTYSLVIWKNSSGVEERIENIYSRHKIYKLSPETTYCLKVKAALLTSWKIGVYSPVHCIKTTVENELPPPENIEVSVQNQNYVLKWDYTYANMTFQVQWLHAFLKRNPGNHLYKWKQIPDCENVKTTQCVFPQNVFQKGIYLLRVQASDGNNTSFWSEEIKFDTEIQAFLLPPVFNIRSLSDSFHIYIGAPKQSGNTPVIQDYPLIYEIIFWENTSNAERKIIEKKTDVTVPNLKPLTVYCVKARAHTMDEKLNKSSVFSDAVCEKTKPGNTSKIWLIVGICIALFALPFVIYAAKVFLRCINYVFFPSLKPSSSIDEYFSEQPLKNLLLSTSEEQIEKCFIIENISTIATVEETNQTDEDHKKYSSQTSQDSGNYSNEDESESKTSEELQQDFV
T1 sequence (P48551 27-515): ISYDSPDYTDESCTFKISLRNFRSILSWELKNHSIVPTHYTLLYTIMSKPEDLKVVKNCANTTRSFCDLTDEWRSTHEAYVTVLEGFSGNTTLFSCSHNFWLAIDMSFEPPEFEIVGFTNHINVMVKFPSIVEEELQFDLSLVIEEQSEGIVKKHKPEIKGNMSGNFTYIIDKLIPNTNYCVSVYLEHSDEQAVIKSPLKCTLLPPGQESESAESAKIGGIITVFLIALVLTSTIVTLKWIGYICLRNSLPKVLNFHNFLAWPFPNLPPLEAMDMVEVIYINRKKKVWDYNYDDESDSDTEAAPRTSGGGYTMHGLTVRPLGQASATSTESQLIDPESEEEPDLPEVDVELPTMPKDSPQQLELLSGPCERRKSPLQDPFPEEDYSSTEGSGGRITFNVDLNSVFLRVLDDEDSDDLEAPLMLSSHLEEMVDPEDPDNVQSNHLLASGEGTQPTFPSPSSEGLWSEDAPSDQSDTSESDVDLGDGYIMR
Experimental: The binding of interferons to human cells was analysed with human alpha interferon labelled with radioactive iodine. The ¹²⁵I-labelled human alpha interferon was assayed for biological activity as well as analysed by sodium dodecyl sulphate (SDS)-polyacrylamide gel electrophoresis before use to ensure that the labelled ligand was not degraded and biologically active. The labelled ligand was then used in binding studies with human fibroblasts as previously described (Thompson et al., Branca and Baglioni; and Epstein et al.). The results of this study are expressed as a Scatchard plot of the binding data in Figures 3 to 6. The cells were washed twice with growth medium to remove most of the fatty acid before they were used to measure the binding of ¹²⁵I-human alpha interferon to their receptors. B and F are concentration of bound and free ¹²⁵I-human alpha interferon respectively.

[5] = test system: total cellular protein synthesis; experiment: Total cellular protein synthesis; type: cell-based
[6] = test system: uptake of ³[H]-uridine by the cells; experiment: Uptake of 3[H]-uridine by the cells; type: cell-based
[7] = test system: induction of antiviral state by human α interferon in human fibroblasts; type: cell-based
[8] = test system: induction of antiviral state by mouse interferon in mouse L cells; type: cell-based; conditions: 50 µM
[9] = test system: induction of antiviral state by mouse interferon in mouse A9 cells; type: cell-based; conditions: 50 µM
[10] = test system: interferon activity; conditions: Sarkar and Gupta; cited from earlier work
[11] = test system: human alpha interferon-induced antiviral state; experiment: Kinetics of the inhibition of the interferon-induced antiviral state in human fibroblasts, Example 2; type: cell-based
Experimental: Human fibroblasts grown in 96 well Micro-test II plates were incubated with growth medium containing 1% fetal calf serum and 50µM arachidonic acid for up to 6 hours. The cells were then assayed for the inhibition of the human alpha interferon-induced antiviral state.
Also, human fibroblasts in 96 well Micro-test II plates were incubated with growth medium containing 1% fetal calf serum and 50µM arachidonic acid for 6 hours.

[12] = test system: total protein and RNA synthesis in the cells; conditions: at concentrations exceeding 1000µM; Sarkar and Gupta; cited from earlier work
[13] = Homo sapiens, Fibroblast, 6 h, read-out: % inhibition of antiviral state induced by: human α interferon, 50µM compound, 1% fetal calf serum, 6 hours
[14] = Homo sapiens, Fibroblast, read-out: % inhibition of the antiviral state induced by human α interferon, Table 4: 50 µM compound, 1% fetal calf serum
[15] = Homo sapiens, Fibroblast, read-out: % inhibition of the antiviral state induced by human α interferon, Table 4: 50 µM compound, 10% fetal calf serum
[16] = Homo sapiens, Fibroblast, 6 h, read-out: % inhibition of antiviral state induced by: human α interferon, 50µM compound, 10% fetal calf serum, 6 hours

CCCCCC#CCC#CCC#CCC#CCCCC(=O)O
inhibition at 50 µM [1, 13]: ≥ 90% | inhibition at 50 µM [1, 14]: ≥ 90% | inhibition at 50 µM [1, 15]: 0% | inhibition at 200 µM ([1]; Homo sapiens, Fibroblast, read-out: % inhibition of the antiviral state induced by human α interferon, Table 4: 200 µM compound, 10% fetal calf serum): ≥ 90% | inhibition at 200 µM ([1]; Homo sapiens, Fibroblast, read-out: inhibit the interferon-induced antiviral state, 200µM, 10% fetal calf serum): ≥ 90% | inhibited the action of interferon [1]: ≥ 90% | inhibition at 50 µM [2]: ≥ 90% | inhibition at 50 µM [3]: ≥ 80% | down regulating the interferon receptors [4]: 30-60% | inhibition of total cellular protein synthesis [5]: did not inhibit | inhibition of the uptake of ³[H]-uridine by the cells [6]: partially inhibited

CC(=O)N1CCN(c2ccc(OC[C@H]3CO[C@](Cn4ccnc4)(c4ccc(Cl)cc4Cl)O3)cc2)CC1 (relative stereo) [Ketoconazole, cis-1-acetyl-4-{4-[2-(2,4-dichlorophenyl)-2-imidazol-1-ylmethyl-1,3-dioxolan-4-ylmethoxy]phenyl}-piperazine, reference compound]
inhibition at 100 µM ([1]; Homo sapiens, Fibroblast, 6 h, read-out: % inhibition of antiviral state induced by: human α interferon, 100µM compound, 10% fetal calf serum, 6 hours): ≥ 90% | inhibited the action of interferon [1]: ≥ 90% | inhibition at 100 µM [2]: ≥ 90% | inhibition of total cellular protein synthesis [5]: did not inhibit

CCCCCCCCC#CCC#CCC#CCCCC(=O)O [5,8,11,-eicosatriynoic acid, 5,8,11-eicosatriynoic acid]
inhibition at 50 µM [1, 13]: ≥ 90% | inhibited the action of interferon [1]: ≥ 90%

COc1ccc2c(c1)c(CC(=O)O)c(C)n2C(=O)c1ccc(Cl)cc1 [Indomethacin]
% inhibition in human fibroblasts ([7]; 50 µM): not measurable | % inhibition in human fibroblasts ([7]; 300 µM): could not measure any inhibitory effect; also recorded: not measurable | % inhibition in mouse L cells [8]: not measurable | % inhibition in mouse A9 cells [9]: not measurable | concentration at which interferon activity could be suppressed [10]: exceeding 1000 µM

CC(Cc1ccc(O)c(O)c1)C(C)Cc1ccc(O)c(O)c1 (stereo not drawn) [Nordihydroguaiaretic acid, 4,4′-(2,3-dimethyltetramethylene)bis(benzene-1,2-diol)]
inhibition at 50 µM [1, 16]: ≥ 90% | inhibited the action of interferon [1]: ≥ 90% | inhibition at 50 µM [2]: ≥ 90% | down regulation of the interferon receptors ([4]; 10% fetal calf serum (Figure 6)): does not seem to significantly down regulate

CCCCC1C(=O)N(c2ccccc2)N(c2ccc(O)cc2)C1=O (stereo not drawn) [Oxyphenylbutazone]
% inhibition in human fibroblasts ([7]; 50 µM): could not measure any inhibitory effect; also recorded: not measurable | % inhibition in mouse L cells [8]: could not measure any inhibitory effect; also recorded: not measurable

O=c1c(O)c(-c2ccc(O)c(O)c2)oc2cc(O)cc(O)c12 [Quercetin]
inhibition at 50 µM [1, 16]: 90% | inhibited the action of interferon [1]: ≥ 90%

CCCCCC=CCC=CCC=CCC=CCCCC(=O)O [arachidonic acid, 5,8,11,14-eicosatetraenoic acid]
inhibition at 50 µM [1, 13]: ≥ 90% | inhibition at 50 µM [1, 14]: ≥ 90% | inhibition at 50 µM [1, 15]: 0% | inhibition at 300 µM ([1]; Homo sapiens, Fibroblast, read-out: % inhibition of the antiviral state induced by human α interferon, Table 4: 300 µM compound, 10% fetal calf serum): ≥ 90% | inhibited the action of interferon [1]: ≥ 90% | inhibition at 50 µM [2]: ≥ 90% | inhibition at 50 µM [3]: ≥ 80% | down regulating the interferon receptors [4]: 30-60% | inhibition of total cellular protein synthesis [5]: did not inhibit | inhibition of the uptake of ³[H]-uridine by the cells [6]: partially inhibited | reversibility of the inhibition after removal of compound ([11]; 50µM for 6 hours, washed, reincubated 0.5, 1, 2 or 24 hours, 1% fetal calf serum (Figure 2)): reversible with time | onset of inhibition of the interferon-induced antiviral state ([11]; 50µM, 1% fetal calf serum, incubation up to 6 hours (Figure 1)): within minutes

CC(C)Cc1ccc(C(C)C(=O)O)cc1 (stereo not drawn) [ibuprofen]
concentration at which interferon activity could be suppressed [10]: exceeding 1000 µM | effect on total protein and RNA synthesis in the cells [12]: began to inhibit total protein and RNA synthesis

CCCCC/C=C\C/C=C\C/C=C\C/C=C\CCCC(=O)O [sodium arachidonate]
inhibition at 300 µM ([1]; Homo sapiens, Fibroblast, read-out: inhibit the interferon-induced antiviral state, 300µM, 10% fetal calf serum): ≥ 90%
